Several values for one entry are separate records, joined by “and”; a condition that tells them apart may be missing. Identical values can stand only once.
Test system: Staphylococcus epidermidis (ATCC 12228)
Assay: Bacterial viability assay with Bovine Serum, HOCl and salt controls (Table 30)
Format: cell-based
Details: 200 ppm Hypochlorous acid, 5 minutes
Experimental: Stock cultures of pathogenic bacteria Staphylococcus epidermidis (ATCC 12228) were prepared as described in Example 3. The final numeration count uses aliquot volume, count obtained on TSA plate and the total original volume of culture. The remaining amount in the tube was used to inoculate actual test samples. Samples from each composition tested were set up with Bovine Serum as follows: 1) Assays with serum contained 100 μL of pathogenic bacteria suspension, 500 μL of Bovine Serum and 9400 μL of one of the composition formulations shown in Table 29; 2) HOCl control assays contained 100 μL of pathogen bacteria suspension, 500 μL of Bovine Serum and 9400 μL of 350 ppm, 200 ppm, 100 ppm or 50 ppm Hypochlorous acid; 3) Salt control assays contained 100 μL of pathogen bacteria suspension, 500 μL of Bovine Serum and 9400 μL of 140 ppm, 80 ppm, 40 ppm or 20 ppm each of Copper (II) chloride, Iron (II) chloride and zinc chloride or each of Copper (II) chloride, Iron (III) chloride and zinc chloride; and 4) Negative control assays contained 100 μL of pathogen bacteria suspension, 500 μL of Bovine Serum and 9400 μL of sterile water. Samples were exposed for five (5) minutes at which point a neutralizing agent was used to inhibit the activity of the microbial agent being tested. […] The presence of viable bacteria was then measured by counting the number of colonies observed on the agar medium.

Substance: Hypochlorous acid [HOCl Control]
- Log Growth Reduction, HOCl Control: 3.03 log and 3.00 log

Reference: patent US12402628B2, “Compositions, kits, methods and uses for cleaning, disinfecting, sterilizing and/or treating” (Collidion, Inc., priority 2018, dated 2025)
